Experimental data published in patent publication US5973229A, “Gene encoding herbicide safener binding protein” (Board of Trustees Operating Michigan State University, priority 1997, dated 1999).

What was measured:
[1] = biological target: safener binding activity (SafBA) / SafBP; settings: cited from earlier work; for IC50: maize SafBA, from Walton and Casida 1995, read-out: IC50 (inhibitor concentration that reduces specific [3H]Saf binding by 50%)
[2] = biological target: T1, SafBP (SBP1 expressed in E. coli) (Zea mays, UniProt O49010); experiment: [3H]Saf binding in extracts of E. coli expressing SBP1; set-up: species or system maize (Zea mays L.); settings: for Total [3H]Saf binding: E. coli/SBP1 2-hr extract, 20.9 μg protein, [3H]R-29148 alone 67.3, average of duplicates
T1 construct: possible vector-derived N-terminal residues
T1 sequence (O49010 1-363): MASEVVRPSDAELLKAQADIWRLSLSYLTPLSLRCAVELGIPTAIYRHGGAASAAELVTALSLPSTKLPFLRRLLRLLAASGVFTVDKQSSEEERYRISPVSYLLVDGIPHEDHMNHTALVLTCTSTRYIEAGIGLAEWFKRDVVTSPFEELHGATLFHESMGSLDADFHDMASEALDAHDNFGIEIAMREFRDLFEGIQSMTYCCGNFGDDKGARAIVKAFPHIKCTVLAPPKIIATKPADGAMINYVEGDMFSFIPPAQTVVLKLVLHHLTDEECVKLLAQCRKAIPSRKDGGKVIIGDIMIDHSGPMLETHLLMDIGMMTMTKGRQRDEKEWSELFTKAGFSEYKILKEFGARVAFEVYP
Experimental: Binding Assay. Racemic R-29148 (Saf) and [^3 H]Saf (specific activity 15 Ci/mmol) were prepared according to Latli, B. et al., J. Labelled Cmpd Radiopharmn. 36:147-155 (1995). The sources of other chemicals are given in Walton, J. D. and Casida, J. E., Plant Physiol. 109:213-219 (1995). [^3 H]Saf binding was measured by incubating extracts with ca. 400,000 cpm of [^3 H]Saf in 50 mM Tris-HCl, pH 8, in a total volume of 1 mL for 60 min at 22° C. The extracts were then filtered through GF/A (Whatman) glass fiber filters that had been soaked in 0.3% polyethylenimine, the filters rinsed with water, and radioactivity retained on the filters measured by scintillation counting. Walton, J. D. and Casida, J. E., Plant Physiol. 109:213-219 (1995).
Expression of SafBP in E. coli. Vector pZL1 (Gibco-BRL) containing the SafBP cDNA clone was digested with EcoRI and NotI, the 1.5-kb insert cloned into the corresponding sites in the E. coli expression vector pET21c (Novagen, Madison, Wis.), and the resulting construct transformed into E. coli strain BL21(DE3) (Novagen). A 50-mL culture of this strain was grown at 37° C. to an OD600 of 0.5 at which point expression of the cDNA was induced with 1 mM isopropylthiogalactoside (IPTG). As a control, E. coli BL21(DE3) transformed with pET21c with no insert was grown in parallel. Samples (each 12.5 mL) were removed at 0, 1, 2, and 3 hr after induction, centrifuged, and extracted by the freeze-thaw method according to Novagen, and centrifuged again to remove cell debris. Each sample was in a final volume of 5 mL of 50 mM Tris-HCl, pH 8; 50 μL of this was used in the [^3 H]Saf binding assay according to Walton and Casida. Walton, J. D. and Casida, J. E., Plant Physiol. 109:213-219 (1995).
SBP1 was expressed in E. coil behind an IPTG-inducible promoter. Extracts of E. coil expressing SBP1 have strong SafBA whereas cells transformed with the empty expression vector have no binding (Table II). […] After growing to an OD600 of 0.5, cells were induced with IPTG and aliquots harvested at the indicated times after induction, lysed, and centrifuged to remove cell debris. Final volume of each extract was 5 mL. Control cells were transformed with the vector without insert. Values are the average of duplicates. Like [^3 H]Saf binding to the native maize protein, [^3 H]Saf binding in E. coli extracts is inhibited by dichlormid, EPTC, metolachlor, acetochlor, and alachlor (Table III). Table III provides inhibition of [^3 H]Saf binding by safeners and herbicides in extracts of E. coli expressing SBP1. The E.coli/SBP1 2-hr time point from […] was used; protein content per sample was 20.9 μg. Values are the average of duplicates.

[3] = competitor Concentration 1.1 (unit not given)

CC1CN(C(=O)C(Cl)Cl)C(C)(C)O1 (racemic) [R-29148, (R,S)-3-dichloroacetyl-2,2,5-trimethyloxazolidine]
IC50 [1]: 120 nM
Kd ([1]; soluble, high affinity binding activity in extracts of etiolated maize seedlings, read-out: Kd of safener binding activity (SafBA) for [3H]Saf): 120 nM
Total [3H]Saf binding ([2]; competitor Concentration 2.5 (unit not given)): 3.0

CCCN(CCC)C(=O)SCC [EPTC, S-ethyl dipropylthiocarbamate]
SafBP binds herbicide [1]: binds
IC50 [1]: 110 nM
Inhibition of R-29148 binding in extracts of E. coli cells expressing SBP1 [2]: competitively inhibited
Total [3H]Saf binding ([2]; competitor Concentration 1.6 (unit not given)): 1.7

CCOCN(C(=O)CCl)c1c(C)cccc1CC [acetochlor]
SafBP binds herbicide [1]: binds
IC50 [1]: 180 nM
Inhibition of R-29148 binding in extracts of E. coli cells expressing SBP1 [2]: inhibited
Total [3H]Saf binding [2, 3]: 21.6

CCc1cccc(CC)c1N(COC)C(=O)CCl [alachlor]
SafBP binds herbicide [1]: binds
IC50 [1]: 70 nM
Inhibition of R-29148 binding in extracts of E. coli cells expressing SBP1 [2]: competitively inhibited
Total [3H]Saf binding [2, 3]: 1.7

CCSC(=O)N(CC(C)C)CC(C)C [butylate]
SafBP binds herbicide [1]: binds

CCSC(=O)N(CC)C1CCCCC1 [cycloate]
SafBP binds herbicide [1]: binds

C=CCN(CC=C)C(=O)C(Cl)Cl [dichlormid]
IC50 [1]: 10 nM
Inhibition of R-29148 binding in extracts of E. coli cells expressing SBP1 [2]: competitively inhibited
Total [3H]Saf binding ([2]; competitor Concentration 1.4 (unit not given)): 0.7

CCc1cccc(C)c1N(C(=O)CCl)C(C)COC (centres unmarked) [metolachlor]
SafBP binds herbicide [1]: binds
IC50 [1]: 40 nM
Inhibition of R-29148 binding in extracts of E. coli cells expressing SBP1 [2]: competitively inhibited
Total [3H]Saf binding [2, 3]: 3.3

CC(C)N(C(=O)CCl)c1ccccc1 [propachlor]
SafBP binds herbicide [1]: binds

CC(C)N(C(=O)SCC(Cl)=C(Cl)Cl)C(C)C [triallate]
SafBP binds herbicide [1]: binds
